Experimental data from patent US11866416B2, “Streptococcus mutans glucosyl transferase inhibitors for dental caries therapy” (UAB Research Foundation, priority 2018, dated 2024).
Read-outs that look alike come from different tables or passages of the source.

What was measured:
S. gordonii = assay: Growth of commensal S. gordonii; format: cell-based, Streptococcus gordonii
Protocol: (§1) Cell viability of S. mutans, S. gordonii, S. sanguinis, Aggregatibacter actinomycetemcomitans and Actinomyces. […] The number of colony-forming units (CFU) per milliliter of each sample treated with selected compounds at different concentrations was enumerated after incubation for 24 h at 37° C. and compared to the values obtained from the DMSO control group. Overnight broth cultures were transferred by 1:50 dilutions into fresh THB medium and were allowed to grow until mid-exponential phase (OD470 nm 0.6) before transfer to 96-well plates containing desired concentration of the compound. After 16 h incubation, bacterial growth was measured at OD470, and normalized to the DMSO control (100%).
(§2) Cell viability of S. mutans and commensal S. gordonii and S. sanguinis. Effects of lead small molecules on cell viability were examined. The number of colony-forming units (CFU) per milliliter for each compound at different concentrations was determined after incubation for 24 h at 37° C. and compared to the values obtained from the DMSO control group.
(§3) Cell viability of S. mutans and commensal S. gordonii and S. sanguinis. […] DMSO served as a control group and provided a relative comparison for the number of colony-forming units (CFU) per milliliter for each compound at different concentrations was determined after incubation for 24 h at 37° C. The final concentration of DMSO used in the assays was 1%.

[1] = test system: Actinomyces naeslundii T14VJ1; assay: Growth of Actinomyces naeslundii; format: cell-based; conditions: 200 μM; printed as slight inhibition (>20%)
Protocol: as §1

[2] = test system: Aggregatibacter actinomycetemcomitans VT1169; assay: Growth of Aggregatibacter actinomycetemcomitans; format: cell-based; conditions: 200 μM
Protocol: as §1

gtfs expression = assay: Real time RT-PCR of gtfs expression; format: cell-based, Streptococcus mutans; conditions: S. mutans UA159, different concentrations, calibrated by 16S rRNA
Protocol: The expression of gtfs was examined by real time RT-PCR. The mRNA expression levels were calibrated by 16S rRNA. Values represent the means±standard deviations from three independent experiments. […] The P value>0.05 is considered to be not significant.
The effect of this potent small molecule on the gene expression of gtfs was also examined. The relative expression level of gtfs was evaluated by real time RT-PCR.

S. sanguinis = assay: Growth of commensal S. sanguinis; format: cell-based, Streptococcus sanguinis
Protocol: as §1, §2, §3

GtfC catalytic domain = GtfC catalytic domain (Streptococcus mutans serotype c (strain ATCC 700610 / UA159), UniProt P13470); assay: OctetRed96 binding kinetics, GtfC
Chain of GtfC catalytic domain (P13470 295-1103 limits assumed): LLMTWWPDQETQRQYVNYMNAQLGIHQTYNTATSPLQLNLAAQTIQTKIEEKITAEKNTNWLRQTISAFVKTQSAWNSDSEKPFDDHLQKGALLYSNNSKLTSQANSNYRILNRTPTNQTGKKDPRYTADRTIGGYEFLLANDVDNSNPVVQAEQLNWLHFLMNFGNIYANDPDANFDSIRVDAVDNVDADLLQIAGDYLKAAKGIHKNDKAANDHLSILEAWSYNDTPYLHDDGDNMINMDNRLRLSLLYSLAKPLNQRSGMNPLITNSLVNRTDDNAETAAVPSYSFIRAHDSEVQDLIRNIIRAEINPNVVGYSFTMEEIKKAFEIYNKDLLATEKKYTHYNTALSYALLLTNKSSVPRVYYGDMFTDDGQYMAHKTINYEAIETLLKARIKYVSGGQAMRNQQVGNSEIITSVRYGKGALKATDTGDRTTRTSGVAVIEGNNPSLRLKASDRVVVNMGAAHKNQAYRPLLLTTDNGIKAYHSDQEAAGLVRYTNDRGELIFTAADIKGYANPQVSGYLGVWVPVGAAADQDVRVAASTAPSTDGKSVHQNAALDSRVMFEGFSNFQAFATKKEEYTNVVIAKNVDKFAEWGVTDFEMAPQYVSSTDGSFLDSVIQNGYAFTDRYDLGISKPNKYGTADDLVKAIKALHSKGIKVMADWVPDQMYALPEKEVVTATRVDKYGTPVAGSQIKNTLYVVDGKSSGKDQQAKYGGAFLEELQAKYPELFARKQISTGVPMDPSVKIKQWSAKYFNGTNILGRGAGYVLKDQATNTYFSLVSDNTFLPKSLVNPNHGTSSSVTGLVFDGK
Source text: To determine if the inhibition is attributed by the binding of the lead compound to the enzymes, the OctetRed96 system was used to characterize protein-small molecule binding kinetics. The his-tagged catalytic domains of GtfB and GtC were immobilized separately onto an anti-penta-HIS (HIS1K) biosensor which consists of high affinity, high specificity penta-his antibody pre-immobilized on a fiber optic biosensor. This sensor was then exposed to varying concentrations of #G43.
Expression and purification of GtfB and GtfC catalytic domains. The DNA fragment coding for either GtfB catalytic (residues 268 aa-1074 aa) or GtfC-catalytic (residues 295 aa-1103 aa) was PCR amplified with primer sets of GtfB-BamH1-F and GtfB-Xho1-R, GtfC-BamH1-F and GtfC-Xhol1-R respectively using S. mutans genomic DNA as a template. Each amplified fragment was cloned into pET-sumo vector respectively and transformed in Escherichia coli BL21(DE3). […]
Octet Red analysis. […] The rate constant, KD, was determined using the Octet® Red96 system (ForteBio, Menlo Park, Calif.). […] The proteins were captured on dip-and-read Anti-Penta-HIS (HIS1K) Biosensor. […] The binding of #G43 at 3-fold serial dilutions in phosphate buffer from 200, 66.6, 22.2, 7.4, 2.5 to 0 μM was assessed. […]
OctetRed analysis. […] Sensorgrams and the accuracy of the analysis was calculated using the ForteBio OctetRed analysis software (ForteBio, Menlo Park, Calif.).

S. mutans biofilm = S. mutans biofilm formation and inhibition assay (96-well plates, crystal violet); format: cell-based, Streptococcus mutans; conditions: for IC50: Streptococcus mutans
S. mutans colonization = assay: Sucrose-dependent Drosophila colonization model; format: in vivo; conditions: 50 μM
Protocol: Briefly, Gfp tagged S. mutans bacteria were infected into flies along with the treatment appropriate compound at 100 μM in a feeding-assay.
Mid-log phase THB cultures of Gfp-tagged (green fluorescent protein) S. mutans UA159 were spun down and resuspended in a solution containing 5% sucrose and 50 μM of the compound. 100 μL of resuspended cells were spotted onto a sterile filter that was placed on the surface of 5 mL of solidified 5% sucrose agar in a plastic vial. The vials were allowed to dry at room temperature for 30 minutes prior to addition of flies. Male Canton S flies (1-3 days old) were treated with antibiotics for 2 days and starved for 3 hours prior to the addition to vials supplied with S. mutans (10 flies per vial). The colonization of flies by Gfp-tagged strains were analyzed by Nikon elipse 90i microscope, equipped with an Epi-fluorescence and NIS elements AR imaging system.
The intensity of the fluorescence was measured in the guts of the flies fed with the Gfp tagged bacteria after 7 days of infection.
Cultures of Gfp-tagged (green fluorescent protein) S. mutans UA159 grown to middle log phase were spun down and re-suspended in a solution containing 5% sucrose and 50 μM of each compound. 100 μL of re-suspended cells were aliquoted onto a sterile filter that was placed on the surface of 5 mL of solidified 5% sucrose agar in a plastic vial. Upon the drying of the vials at room temperature for 30 min, the flies were introduced to the vessels. Male Canton S flies (1-3 days old) were treated with antibiotics for 2 days and starved for 3 h before the addition to vials supplied with S. mutans (10-14 flies per vial). Nikon elipse 90i microscope, equipped with an Epi-fluorescence and NIS elements AR imaging system was used to analyze the colonization of flies by Gfp-tagged strains.

For `NC(=O)c1ccccc1NC(=O)c1cc2cc([N+](=O)[O-])ccc2s1` [#G43], the “effect on S. gordonii growth” value (S. gordonii; 200 μM, OD470) was “did not have any effect on bacterial growth”, the “inhibition of Actinomyces naeslundii growth” value [1] was > 20% and the “inhibition of Aggregatibacter actinomycetemcomitans growth” value [2] was “no significant inhibition”. The “expression of gtfs versus DMSO” value (gtfs expression) was “no significant difference was observed”, the “effect on S. sanguinis growth” value (S. sanguinis; 200 μM, OD470) was “did not have any effect on bacterial growth” and the Kd (GtfC catalytic domain; 1:1 binding model) was 0.0469 µM. The “inhibition of S. mutans biofilms at 12.5 μM” value (S. mutans biofilm; 12.5 μM, crystal violet assay) was “more than 85%”.

`Oc1cc(O)cc(/C=C/c2ccc(O)c(O)c2)c1` [Piceatannol] was tested, and the “decrease of S. gordonii cell density” value (S. gordonii; 400 μM) was 15-18%, the inhibition at 52 µM (S. gordonii; Streptococcus gordonii, at 52 μM, read-out: growth of S. gordonii inhibited) was < 10% and the “fluorescence of Gfp tagged S. mutans in fly guts after 7 days” value (S. mutans colonization) was “significant decrease in fluorescence”. The “decrease of S. sanguinis cell density” value (S. sanguinis; 400 μM) was 15-18%, the inhibition at 52 µM (S. sanguinis; Streptococcus sanguinis, at 52 μM, read-out: growth of S. sanguinis inhibited) was < 10% and the IC50 (S. mutans biofilm; Table 3, read-out: Biofilm Inhibition IC50) was 52 ± 6 µM. The IC50 (S. mutans biofilm; Table 4, stilbenes, NI = no inhibition, read-out: Biofilm IC50) was 52 ± 6 µM, the IC50 (S. mutans biofilm; Table 8, stilbenes, NI = no inhibition, read-out: Biofilm IC50) was 52 ± 6 µM and the IC50 (S. mutans biofilm; read-out: S. mutans biofilm IC50) was 52 µM.

In the case of `Oc1ccc(/C=C/c2cc(O)cc(O)c2)cc1` [Resveratrol, reference compound], the Kd (GtfC catalytic domain; stilbenes, 1:1 binding mode) is reported as 510 µM.
